According to article PMC6599079 (Nature Communications, 2019):
Like-named read-outs stand apart in the source and are kept apart here. Square brackets hold non-standard residues; d marks the D form. Ends that are not written are not given here. Met(O) = CS(=O)CC[C@H](N)C(=O)O

Key:
[1] = tested on: splenic CD8^+ T cells; type: in vivo, C57BL/6 mice; settings: for IFNg#: spleen; for CTL response, ICS: file clean_CTLresponse_ICS_new, tissue not given
[2] = biological target: T1, H-2D^b (Mus musculus, UniProt P01899); assay: biochemical; type: binding
T1 sequence (P01899 25-362): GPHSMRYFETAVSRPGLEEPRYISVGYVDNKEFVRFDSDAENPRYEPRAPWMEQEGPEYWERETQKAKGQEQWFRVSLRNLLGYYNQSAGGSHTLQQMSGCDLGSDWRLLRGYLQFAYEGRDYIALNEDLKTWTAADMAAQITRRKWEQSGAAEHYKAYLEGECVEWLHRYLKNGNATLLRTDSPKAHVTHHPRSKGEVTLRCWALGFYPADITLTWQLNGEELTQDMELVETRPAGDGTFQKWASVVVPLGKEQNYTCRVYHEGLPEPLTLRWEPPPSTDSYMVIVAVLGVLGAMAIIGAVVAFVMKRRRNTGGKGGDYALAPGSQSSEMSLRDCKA
T1 sequence (P01887 21-119 partner): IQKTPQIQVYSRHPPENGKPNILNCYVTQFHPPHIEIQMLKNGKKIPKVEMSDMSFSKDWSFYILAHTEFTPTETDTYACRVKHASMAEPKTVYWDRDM

[3] = biological target: T2, H-2K^b (Mus musculus, UniProt P01901); assay: biochemical; type: binding
T2 sequence (P01901 22-369): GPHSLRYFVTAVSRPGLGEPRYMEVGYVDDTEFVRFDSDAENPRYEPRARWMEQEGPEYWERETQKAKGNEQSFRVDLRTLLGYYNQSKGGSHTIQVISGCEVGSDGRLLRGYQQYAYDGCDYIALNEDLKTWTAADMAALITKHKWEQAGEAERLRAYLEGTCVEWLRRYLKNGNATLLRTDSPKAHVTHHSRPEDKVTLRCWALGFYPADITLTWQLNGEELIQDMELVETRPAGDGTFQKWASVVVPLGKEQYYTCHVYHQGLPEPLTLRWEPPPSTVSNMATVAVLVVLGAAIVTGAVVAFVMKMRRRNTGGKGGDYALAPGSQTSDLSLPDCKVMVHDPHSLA
T2 sequence (P01887 21-119 partner): T1 sequence (P01887 21-119 partner)

[4] = biological target: H-2b MHC class I (allele not given); assay: Classical competition assay of peptide binding to purified MHC; restricting allele not printed in the epitope label of this file; parameters: species or system mouse; settings: epitope label without allele; file clean_file9_IC50; unit inferred
[5] = 1st EXP, number of IFNg+ CD8 cells = IFNg% (w/o background) x CD8# 5103400, replicate Mouse 2
[6] = 1st EXP, number of IFNg+ CD8 cells = IFNg% (w/o background) x CD8# 5464800, replicate Mouse 3
[7] = 1st EXP, number of IFNg+ CD8 cells = IFNg% (w/o background) x CD8# 5668200, replicate Mouse 4
[8] = 1st EXP, number of IFNg+ CD8 cells = IFNg% (w/o background) x CD8# 5724000, replicate Mouse 5
[9] = 1st EXP, number of IFNg+ CD8 cells = IFNg% (w/o background) x CD8# 6077000, replicate Mouse 1
[10] = 2nd EXP, number of IFNg+ CD8 cells per spleen (CD8# 2541000), Mouse 5
[11] = 2nd EXP, number of IFNg+ CD8 cells per spleen (CD8# 2956300), Mouse 4
[12] = 2nd EXP, number of IFNg+ CD8 cells per spleen (CD8# 3816800), Mouse 1
[13] = 2nd EXP, number of IFNg+ CD8 cells per spleen (CD8# 4765200), Mouse 3
[14] = 2nd EXP, number of IFNg+ CD8 cells per spleen (CD8# 5219500), Mouse 2
[15] = 2nd EXP, number of IFNg+ CD8 cells per spleen (CD8# 5392600), Mouse 6
[16] = Measured IC50 of each peptide, H-2D^b
[17] = Measured IC50 of each peptide, H-2K^b
[18] = epitopes labelled Kb, file clean_file9_IC50, unit inferred, read-out: IC50

Row | Molecule | IC50 [2, 16] [nM] | IC50 [3, 17] [nM] | other results
1 | 19 (CFKFDHL) [compound 19] |  |  | IFNg# [1, 5]: 34310.2; IFNg# [1, 6]: 27968.8; IFNg# [1, 7]: 21326.6; IFNg# [1, 8]: 46581.9; IFNg# [1, 9]: 28197.3; IFNg# [1, 10]: 17050.1; IFNg# [1, 11]: 2143.61; IFNg# [1, 12]: 22289; IFNg# [1, 13]: 7728.2; IFNg# [1, 14]: 8361.64; IFNg# [1, 15]: 5535.5
2 | SSYRRPVGI [PB1_703–711] | 29000 | 1.9 | 
3 | RTFSFQLI [NS2_114–121] | > 40000 | 4.7 | 
4 | VTVTHSVNL [HA41–49] | 872 | 7.9 | 
5 | VYIEVLHL [PB2-227-234Kb] |  |  | IC50 [3, 18]: 2.77 nM
6 | SQLKNNAKEI [HA467–476] | 173 | > 40000 | 
7 | YQNIHPVTI [HA308–316] | 1970 | 1140 | 
8 | CSCC[C@H](NC(=O)[C@@H](NC(=O)[C@H](CCC(=O)O)NC(=O)[C@H](CCSC)NC(=O)[C@H](CC(N)=O)NC(=O)[C@H](CCC(=O)O)NC(=O)[C@H](CC(N)=O)NC(=O)[C@H](CO)NC(=O)[C@H](C)N)[C@@H](C)O)C(=O)O [NP366–374] | 18 | > 40000 | 
9 | KNMEYDAV [PB1_653–660] | > 40000 | 156 | 
10 | NGITNKVNTVI [HA389–399] | 118 | 22000 | 
11 | SSLENFRAYV [PA224–233] | 0.16 | 38 | 
12 | SGPDNGAVAV [NA181–190] | 65 | 262 | 
13 | HA-41-49 (VTVTHSVNL) |  |  | CTL response, ICS ([1]; Mouse1): 14900.8; CTL response, ICS ([1]; Mouse2): 4695.13; CTL response, ICS ([1]; Mouse3): 8913.09; CTL response, ICS ([1]; Mouse4): 22267.5; CTL response, ICS ([1]; Mouse5): 32844.3; CTL response, ICS ([1]; Mouse11): 2884.36; CTL response, ICS ([1]; Mouse12): 3836.33; CTL response, ICS ([1]; Mouse13): 2696.15; CTL response, ICS ([1]; Mouse14): 546.324; CTL response, ICS ([1]; Mouse15): 0; CTL response, ICS ([1]; Mouse16): 865.512; IC50 [4]: 872 nM
14 | SSLENFRAYV [PA-224-233Db] |  |  | IC50 ([2]; epitopes labelled Db, file clean_file9_IC50, unit inferred, read-out: IC50): 0.155 nM
15 | SFQDILLRM [NS2_8–16] | 10700 | 185 | 
16 | IGRFYIQM [NP36–43] | 3300 | 1.9 | 
17 | SSYRRPVGI [PB1-703-711Kb] |  |  | IC50 [3, 18]: 1.94 nM
18 | AGLKNDLLENL [M1_227–237] | 5280 | 3310 | 
19 | CC[C@H](C)[C@H](NC(=O)[C@H](CC(N)=O)NC(=O)[C@@H](N)CCSC)C(=O)N[C@@H](CCC(N)=O)C(=O)N[C@@H](Cc1ccccc1)C(=O)N[C@H](C(=O)N[C@@H](C)C(=O)N[C@H](C(=O)O)C(C)C)[C@@H](C)O [HA402–409] | 6180 | 3 | 
20 | VYIEVLHL [PB2_227–234] | 20900 | 2.8 | 
21 | SGPDNGAVAVL [NA181–191] | 64 | 585 | 
22 | LSLRNPILV [PB1-F2_62–70] | 18 | 12400 | 
23 | 2 (TLTSANHA[Met(O)]I) [compound 2] |  |  | IFNg# [1, 5]: 1002.82; IFNg# [1, 6]: 6300.91; IFNg# [1, 7]: 49270.8; IFNg# [1, 8]: 453.913; IFNg# [1, 9]: 8544.26; IFNg# [1, 10]: -2541; IFNg# [1, 11]: 765.09; IFNg# [1, 12]: 334.733; IFNg# [1, 13]: 3334.69; IFNg# [1, 14]: 2635.85; IFNg# [1, 15]: -650.348
24 | MGLIYNRM [M1_128–135] | > 40000 | 92.6 | 
25 | SSLPYQNI [HA304–311] | > 40000 | 4.7 | 
